In US7230116B2, “Pyrazolyl-substituted heterocycles and their use as phytosanitary products” (Bayer CropScience, AG, priority 2001, dated 2007):
Each block holds one compound with its values, some of them ahead of it.

Columns and labels:
[1] = logP determination by HPLC (reversed-phase C18), EEC Directive 79/831 Annex V.A 8; format: physicochemical; conditions: HPLC reversed-phase column (C 18), 43° C.; for chromatographic logP: reversed-phase C18 HPLC column, pH 2.3
Protocol: The logP values given for the Examples (I-2-A-a) were determined in accordance with EEC Directive 79/831 Annex V.A 8 by HPLC (High Performance Liquid Chromatography) using a reversed-phase column (C 18). Temperature: 43° C. • (a) Mobile phases for the determination in the acidic range: 0.1% aqueous phosphoric acid, acetonitrile; linear gradient from 10% acetonitrile to 90% acetonitrile. • (b) Mobile phases for the determination in the neutral range: 0.01 molar aqueous phosphate buffer solution, acetonitrile; linear gradient from 10% acetonitrile to 90% acetonitrile. Calibration was carried out using unbranched alkan-2-ones (of 3 to 16 carbon atoms) with known logP values (determination of the logP values by the retention times using linear interpolation between two successive alkanones).

[2] = tested on: larvae of the mustard beetle (Phaedon cochleariae); assay: Phaedon larvae test; format: in vivo; conditions: 500 ppm active compound
Protocol: (§1) Phaedon larvae Test [table] To produce a suitable preparation of active compound, 1 part by weight of active compound is mixed with the stated amounts of solvent and emulsifier, and the concentrate is diluted with emulsifier-containing water to the desired concentration. Cabbage leaves (Brassica oleracea) are treated by being dipped into the preparation of active compound of the desired concentration and are populated with larvae of the mustard beetle (Phaedon cochleariae) while the leaves are still moist. After the desired period of time, the kill in % is determined. 100% means that all beetle larvae have been killed; 0% means that none of the beetle larvae have been killed.

[3] = tested on: greenhouse red spider mite (Tetranychus urticae); assay: Tetranychus test (OP-resistant/dip treatment); format: in vivo; conditions: 100 ppm active compound, OP-resistant, dip treatment
Protocol: Tetranychus Test (OP-Resistant/Dip Treatment)
To produce a suitable preparation of active compound, 1 part by weight of active compound is mixed with the stated amounts of solvent and emulsifier, and the concentrate is diluted with emulsifier-containing water to the desired concentration.
Bean plants (Phaseolus vulgaris) which are heavily infested by all stages of the greenhouse red spider mite (Tetranychus urticae) are treated by being dipped into a preparation of active compound of the desired concentration.
After the desired period of time, the effect in % is determined. 100% means that all spider mites have been killed; 0% means that none of the spider mites have been killed.

[4] = tested on: caterpillars of the armyworm (Spodoptera frugiperda); assay: Spodoptera frugiperda test; format: in vivo; conditions: 500 ppm active compound
Protocol: as §1, with “Spodoptera frugiperda” for “Phaedon larvae”, “caterpillars” for “larvae”, “armyworm (Spodoptera frugiperda)” for “mustard beetle (Phaedon cochleariae)”, “caterpillars” for “beetle larvae”

Amaranthus = assay: Post-emergence test, greenhouse; format: in vivo; conditions: after three weeks
Protocol: (§2) Post-Emergence Test [table] To produce a suitable preparation of active compound, 1 part by weight of active compound is mixed with the stated amount of solvent, the stated amount of emulsifier is added and the concentrate is diluted with water to the desired concentration. Test plants of a height of 5-15 cm are sprayed with the preparation of active compound such that the particular amounts of active compound desired are applied per unit area. The concentration of the spray liquor is chosen such that the particular amounts of active compound desired are applied in 1000 l of water/ha. After three weeks, the degree of damage to the plants is rated in % damage in comparison to the development of the untreated control. The figures denote: [table]

Avena fatua = assay: Post-emergence test, greenhouse; format: in vivo; conditions: after three weeks
Protocol: as §2

Sinapis = assay: Post-emergence test, greenhouse; format: in vivo; conditions: 250 g ai/ha, after three weeks
Protocol: as §2

Abutilon = assay: Post-emergence test, greenhouse; format: in vivo; conditions: 250 g ai/ha, after three weeks
Protocol: as §2

Setaria = assay: Post-emergence test, greenhouse; format: in vivo; conditions: after three weeks
Protocol: as §2

Alopecurus = assay: Post-emergence test, greenhouse; format: in vivo; conditions: after three weeks
Protocol: as §2

[5] = tested on: peach aphid (Myzus persicae); assay: Myzus test (cabbage leaves dipped); format: in vivo; conditions: 500 ppm active compound
Protocol: as §1, with “Myzus” for “Phaedon larvae”, “oleracea) which are heavily infested by the peach aphid (Myzus persicae)” for “oleracea)”, “concentration.” for “concentration and are populated with larvae of the mustard beetle (Phaedon cochleariae) while the leaves are still moist.”, “aphids” for “beetle larvae”

[6] = tested on: cotton aphid (Aphis gossypii); assay: Aphis gossypii test (cotton leaves dipped); format: in vivo; conditions: 500 ppm active compound
Protocol: as §1, with “Aphis gossypii” for “Phaedon larvae”, “Cotton” for “Cabbage”, “(Gossypium hirsutum) which are heavily infested by the cotton aphid (Aphis gossypii)” for “(Brassica oleracea)”, “concentration.” for “concentration and are populated with larvae of the mustard beetle (Phaedon cochleariae) while the leaves are still moist.”, “aphids” for “beetle larvae”

[7] = tested on: caterpillars of the diamondback moth (Plutella xylostella); assay: Plutella test; format: in vivo; conditions: 500 ppm active compound
Protocol: as §1, with “Plutella” for “Phaedon larvae”, “caterpillars” for “larvae”, “diamondback moth (Plutella xylostella)” for “mustard beetle (Phaedon cochleariae)”, “caterpillars” for “beetle larvae”

Bromus = assay: Post-emergence test, greenhouse; format: in vivo; conditions: after three weeks
Protocol: as §2

Viola = assay: Post-emergence test, greenhouse; format: in vivo; conditions: 125 g ai/ha, after three weeks
Protocol: as §2

Lolium = assay: Post-emergence test, greenhouse; format: in vivo; conditions: after three weeks
Protocol: as §2

Oilseed rape = assay: Post-emergence test, greenhouse; format: in vivo; conditions: 125 g ai/ha, after three weeks
Protocol: as §2

Sugarbeet = assay: Post-emergence test, greenhouse; format: in vivo; conditions: 250 g ai/ha, after three weeks
Protocol: as §2

logP (pH 2.3) [1]: 2.35
Structure (SMILES): Cc1cc(-c2ccc(Cl)cc2)nn1C1=C(O)C2(Cc3ccccc3C2)OC1=O [Example I-2-A-a-5]

logP (pH 2.3) [1]: 2.74
Structure (SMILES): Cc1cc(-c2ccc(Cl)cc2)nn1C1=C(O)C2(CCC(C(F)(F)F)CC2)OC1=O (centres unmarked) [Example I-2-A-a-2]

Structure (SMILES): CCOC(=O)OC1=C(n2nc(-c3ccc(Cl)cc3)cc2C)C(=O)NC12CCC(OC)CC2 (centres unmarked) [Example I-1-A-c-1]
Kill rate in % after 7d [2]: 90%
Kill rate in % after 7d [3]: 98%
Kill rate in % after 7d [4]: 100%
% damage, Amaranthus (Amaranthus; 250 g ai/ha): 95%
% damage, Avena fatua (Avena fatua; 250 g ai/ha): 100%
% damage, Sinapis (Sinapis): 80%
% damage, Abutilon (Abutilon): 95%
% damage, Setaria (Setaria; 250 g ai/ha): 100%
% damage, Alopecurus (Alopecurus; 250 g ai/ha): 100%

logP (pH 2.3) [1]: 1.55
Structure (SMILES): Cc1cc(-c2ccc(Cl)cc2)nn1C1=C(O)C2(CCOCC2)OC1=O [Example I-2-A-a-7]

logP (pH 2.3) [1]: 2.92
Structure (SMILES): Cc1cc(-c2cccc(C(F)(F)F)c2)nn1C1=C(O)C(C)(CC(C)(C)C)OC1=O (centres unmarked) [Example I-2-A-a-10]

chromatographic logP [1]: 4.32
Structure (SMILES): Cc1cc(-c2ccc(Cl)cc2)nn1C1=C(OC(=O)C(C)(C)C)C2(CCCOC2)OC1=O (centres unmarked) [Example I-2-A-b-1]

logP (pH 2.3) [1]: 1.74
Structure (SMILES): Cc1cc(-c2ccc(Cl)cc2)nn1C1=C(O)C(C)(C)OC1=O [Example I-2-A-a-3]

logP (pH 2.3) [1]: 2.70
Structure (SMILES): CCC1(C)OC(=O)C(n2nc(-c3ccc(Br)cc3)cc2C)=C1O (centres unmarked) [Example I-2-A-a-8]

logP (pH 2.3) [1]: 1.50
Structure (SMILES): Cc1cc(-c2ccccc2)nn1C1=C(O)C(C)(C(C)C)OC1=O (centres unmarked) [Example I-2-A-a-9]

chromatographic logP [1]: 2.05
Structure (SMILES): COC1CCC2(CC1)OC(=O)C(n1nc(-c3ccc(Cl)cc3)cc1C)=C2O (centres unmarked) [Example I-2-A-a-1]
Kill rate in % after 7d [3]: 100%
Kill rate in % after 6d [5]: 90%

Structure (SMILES): CCOC(=O)OC1=C(c2c(C)nn(-c3ccc(Cl)cc3)c2C)C(=O)NC12CCC(OC)CC2 (centres unmarked) [Example I-1-B-c-1]
% damage, Amaranthus (Amaranthus; 2000 g ai/ha): 90%
% damage, Avena fatua (Avena fatua; 2000 g ai/ha): 90%
% damage, Setaria (Setaria; 2000 g ai/ha): 95%
% damage, Alopecurus (Alopecurus; 2000 g ai/ha): 90%

chromatographic logP [1]: 4.11
Structure (SMILES): CCOC(=O)C1(OC(=O)Cn2nc(-c3ccc(Cl)cc3)cc2C)CCC(OC)CC1 (centres unmarked) [Example III-A-1]

Structure (SMILES): COC1CCC2(CC1)NC(=O)C(n1nc(-c3ccc(Cl)cc3)cc1C)=C2O (single isomer, unassigned) [Example I-1-A-a-4]
Kill rate in % after 7d [2]: 100%
Kill rate in % after 6d [6]: 95%
Kill rate in % after 7d [7]: 100%
Kill rate in % after 7d [3]: 95%
Kill rate in % after 7d [4]: 100%
% damage, Bromus (Bromus; 125 g ai/ha): 100%
% damage, Bromus (Bromus; 250 g ai/ha): 100%
% damage, Viola (Viola): 100%
% damage, Lolium (Lolium; 125 g ai/ha): 100%
% damage, Lolium (Lolium; 250 g ai/ha): 100%
% damage, Oilseed rape (Oilseed rape): 0%
% damage, Avena fatua (Avena fatua; 125 g ai/ha): 100%
% damage, Avena fatua (Avena fatua; 250 g ai/ha): 100%
% damage, Sugarbeet (Sugarbeet): 10%
% damage, Abutilon (Abutilon): 80%
% damage, Setaria (Setaria; 125 g ai/ha): 100%
% damage, Setaria (Setaria; 250 g ai/ha): 100%
% damage, Alopecurus (Alopecurus; 125 g ai/ha): 100%
% damage, Alopecurus (Alopecurus; 250 g ai/ha): 100%
Kill rate in % after 6d [5]: 90%

logP (pH 2.3) [1]: 2.46
Structure (SMILES): CCOC1CCC2(CC1)OC(=O)C(n1nc(-c3ccc(Cl)cc3)cc1C)=C2O (centres unmarked) [Example I-2-A-a-4]

logP (pH 2.3) [1]: 1.49
Structure (SMILES): Cc1cc(-c2ccc(Cl)cc2)nn1C1=C(O)C2(CCCOC2)OC1=O (centres unmarked) [Example I-2-A-a-6]
